Measurements taken from PMC10321640, “The VIPR2-selective antagonist KS-133 changes macrophage polarization and exerts potent anti-tumor effects as a single agent and in combination with an anti-PD-1 antibody” (PLOS ONE, 2023).
Where a SMILES comes first, the peptide text is derived from it. Bridges are numbered along the chain shown (N, C = ends).

How the values were obtained:
[1] = test system: CT26 tumors; assay: In vivo anti-tumor evaluation, CT26 subcutaneous allografts; set-up: species or system BALB/cCrSlc female mice; settings: Fig 2A, KS-133 30 μg/mouse s.c. daily
Procedure: All experimental procedures that involved animals and their care were conducted in compliance with the Guide for the Care and Use of Laboratory Animals and ARRIVE guidelines. These animal experiments were approved by the Animal Care and Use Committee of Kagawa University (approval No. 21650) and conducted at Kagawa University in accordance with the guidelines. To establish subcutaneous allograft tumors, CT26 cells (1 × 10^5) were subcutaneously injected into the left groin region of BALB/cCrSlc female mice (6 weeks old; Japan SLC, Inc., Shizuoka, Japan) under isoflurane anesthesia. […] The tumor growth rate was recorded on days 1, 7, 14, and 21 by measuring the major and minor axes with a digital caliper. […]
Fig 2 Anti-tumor effects of KS-133 and KS-133 NPs with or without anti-PD-1 antibody in mice bearing CT26 subcutaneous allografts. […] (A) Anti-tumor efficacy of KS-133 (n = 9–10 mice per group, expressed as the mean ± SEM, *p < 0.01 and **p < 0.001 vs. vehicle control by two-way ANOVA). […] (B) Anti-tumor efficacy of KS-133 NPs (n = 11 mice per group, expressed as the mean ± SEM, *p < 0.05 and **p < 0.001 vs. vehicle control by two-way ANOVA). […] (C) Anti-tumor efficacy of KS-133 NPs and KS-133(P3S) NPs with an anti-PD-1 antibody (n = 6–8 mice per group, expressed as the mean ± SEM, *p < 0.01 and **p < 0.001 vs. Vehicle control by two-way ANOVA). […]

[2] = cited from earlier work
Text: Vasoactive intestinal peptide receptor 2 (VIPR2) is a class-B G protein-coupler receptor that participates in various physiological function by interacting with its ligand vasoactive intestinal peptide (VIP). VIP–VIPR2 signaling has attracted attention as a drug target in the fields of central nervous system diseases, oncology, and immunity. In 2021, we generated 13-mer bicyclic peptide KS-133 as a potent and selective antagonist to VIPR2 [1]. […] Generally, peptides are rapidly degraded by proteases, and even if they are resistant to degradation, they are prematurely excreted from the body via renal filtration. Thus, frequent dosing is needed, reducing patients’ quality of life. KS-133 is stable in plasma for at least 24 h. Unfortunately, daily dosing is required for the anti-tumor effects of KS-133 in vivo. A versatile method for improving the pharmacokinetics of peptides is conjugation with polyethylene glycol, but this req ...

CC[C@H](C)[C@H](NC(=O)[C@H](CC(C)C)NC(=O)[C@@H]1CC(=O)NCCCC[C@@H]2NC(=O)[C@@H]3CCCN3C(=O)[C@H](CC(C)C)NC(=O)[C@H](Cc3ccc(O)cc3)NC(=O)[C@@H]3CCCN3C(=O)[C@@H]3CCCN3C(=O)[C@@H](NC(C)=O)CSSC[C@H](NC(=O)[C@H](CC(C)C)NC(=O)[C@H](Cc3ccc(O)cc3)NC2=O)C(=O)N1)C(N)=O [KS-133] (Ac-CPPYLPKYLCDLI-NH2; disulfide 1-10; lactam 7-11)
effect on CT26 tumor growth (in words) ([1]; alone or with anti-PD-1 antibody 200 μg/mouse i.p. three times in a week, combination p < 0.001 vs vehicle): tended to suppress CT26 tumor growth | tumor volume, control group set as 100% ([1]; anti-PD-1 antibody 200 μg/mouse i.p. three times in a week, 3 weeks, n = 9–10 mice per group): 66% | protease degradation [2]: resistant to protease degradation | time stable in plasma ([2]; plasma): at least 24 h
